BindingDB's records for doi:10.1016/j.bmcl.2013.04.070 (2013)
pIC50: −log10 of the molar value.

Target: Presenilin-1 (Homo sapiens, UniProt P49768)
Assay: Modulation of human gamma-secretase presenilin-1 subunit expressed in CHO cells coexpressing human APP assessed as decrease in amyloid beta 42 generation after 24 hrs by ELISA

pIC50: 4.50
SMILES: CCCCCCCCOC(=O)C1(C)CCc2c(C)c(OCC(=O)O)c(C)c(C)c2O1 (stereo unspecified)
